Laboratory results published in patent US9200286B2 (THE RESEARCH FOUNDATION FOR THE STATE UNIVERSITY OF NEW YORK, priority 2010, dated 2015).
Like-named read-outs stand apart in the source and are kept apart here.

Assays:
GluA1flip = GluA1flip (Rattus norvegicus, UniProt P19490); assay: Subunit selectivity, whole-cell recording, GluA1; type: cell-based; conditions: closed- and open-channel glutamate concentrations
Method: The subunit selectivity of AF44/AF42 was assessed with individual subunits of AMPA, kainate and NMDA receptors expressed in HEK-293 cells, and was represented by A/A(I) value collected from whole-cell recording (FIG. 8A).
All of the receptors were transiently expressed in HEK-2935 cell. HEK-293S cells were maintained in Dulbecco's modified Eagle's medium (DMEM) supplemented with 10% fetal bovine serum and 1% penicillin in a 37° C., 5% CO2, humidified incubator. Receptors were transiently transfected by using calcium phosphate or lipofectamine 2000 (Invitrogen). The DNA plasmids encoding green fluorescent protein (GFP) and T-antigen (TAg) were cotransfected in HEK-293S cells. GFP was used as a transfection marker for cell recording, and TAg was cotransfected to potentiate the receptor expression at the single-cell level (51). […]
For recording of the NMDA channels, the intracellular solution contained (in mM) 140 CsCl, 1 MgCl2, 0.1 EGTA, and 10 HEPES (pH 7.2 adjusted by Mg(OH)2), while the extracellular solution contained (in mM) 135 NaCl, 5.4 KCl, 1.8 CaCl2, 10 glucose and 5 HEPES (pH 7.2 adjusted by NaOH). […] The whole-cell current was recorded using an Axopatch-200B amplifier at a cutoff frequency of 2-20 kHz by a built-in, eight-pole Bessel filter and digitized at 5-50 kHz sampling frequency using a Digidata 1322A from Axon Instruments (Molecular Devices, Sunnyvale, Calif.). […]

GluA2Qflip AMPA receptor = GluA2Qflip AMPA receptor (Rattus norvegicus, UniProt P19491); conditions: for Ki: from A/A(I) vs inhibitor concentration; for inhibition by A/A(I), ratio of whole-cell current amplitude in absence and presence of aptamer: 1 μM aptamer (FIG. 3, FIG. 5)
Sequence of GluA2Qflip AMPA receptor (P19491 22-883 isoform P19491-2 limits assumed): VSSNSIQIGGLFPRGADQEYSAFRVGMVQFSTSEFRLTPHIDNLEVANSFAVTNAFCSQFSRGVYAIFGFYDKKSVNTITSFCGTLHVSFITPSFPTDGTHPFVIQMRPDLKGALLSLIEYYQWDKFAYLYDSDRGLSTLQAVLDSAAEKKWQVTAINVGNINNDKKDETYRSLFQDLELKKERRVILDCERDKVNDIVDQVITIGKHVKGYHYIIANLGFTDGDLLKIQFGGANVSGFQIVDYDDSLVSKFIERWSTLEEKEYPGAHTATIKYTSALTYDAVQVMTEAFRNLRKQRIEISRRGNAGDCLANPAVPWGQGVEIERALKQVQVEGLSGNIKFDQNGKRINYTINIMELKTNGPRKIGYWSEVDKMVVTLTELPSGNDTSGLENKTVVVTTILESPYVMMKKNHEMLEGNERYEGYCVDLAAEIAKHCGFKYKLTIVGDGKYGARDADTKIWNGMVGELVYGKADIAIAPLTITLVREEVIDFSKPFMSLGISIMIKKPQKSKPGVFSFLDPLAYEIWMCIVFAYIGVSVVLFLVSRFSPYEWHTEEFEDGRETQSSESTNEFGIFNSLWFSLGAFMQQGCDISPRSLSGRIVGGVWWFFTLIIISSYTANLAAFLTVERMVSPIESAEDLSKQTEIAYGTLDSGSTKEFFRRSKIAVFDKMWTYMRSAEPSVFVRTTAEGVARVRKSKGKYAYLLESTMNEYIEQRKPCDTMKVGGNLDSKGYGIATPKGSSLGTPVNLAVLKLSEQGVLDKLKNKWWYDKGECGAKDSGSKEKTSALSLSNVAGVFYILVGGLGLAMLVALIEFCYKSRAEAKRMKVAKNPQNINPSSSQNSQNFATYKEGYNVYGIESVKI
Method: The putative inhibitory property of the four sequences was then functionally tested by the use of whole-cell current recording with GluA2Qflip expressed in HEK-293 cells. […] The current was recorded at −60 mV, pH 7.4 and 22° C. with the same HEK-293 cells expressing GluA2Qflip that were used for selection.
The procedure for whole-cell current recording used to assay putative aptamers is known in the art. For the present invention, all recordings were at −60 mV and 22° C. The recording electrode was filled with the buffer (in mM): 110 CsF, 30 CsCl, 4 NaCl, 0.5 CaCl2, 5 EGTA, and 10 HEPES (pH 7.4 adjusted by CsOH). The extracellular buffer composition used is described supra. All other buffers used were previously described. The whole-cell current was recorded using an Axopatch 200B amplifier at a cutoff frequency of 2-20 kHz by a built-in, four-pole Bessel filter and digitized at 5-50 kHz sampling frequency using a Digidata 1322A (Molecular Devices). pClamp 8 (Molecular Devices, Sunnyvale Calif.) was used for data acquisition.
Using whole-cell recording, the putative inhibitory property for each aptamer was tested with HEK 293 cells expressing GluA2Qflip receptors and expressed as the ratio of the whole-cell current amplitude in the absence and presence of an aptamer, that is, A/A(I). The current was recorded at −60 mV, pH 7.4 and 22° C. with the same HEK-293 cell expressing GluA2Qflip.
Selected RNA sequences were assayed using whole-cell current recording with GluA2Qflip. […] The third round of the library or “pool 3” at 1 μM was used as a control. The ‘*’ indicates P≦0.05 from the two-tailed Student's t test (H0: μ=μ0=1, 1 being the theoretical value of no inhibition, marked as the dashed line).
The ratio of the whole-cell current amplitude in the absence and presence of a putative aptamer or A/A(I) as a function of aptamer concentration was used to independently measure inhibition constants (29), as illustrated in Equations 7a and 7b (29). These equations were derived based on the same general mechanism of channel opening described earlier. KI, app is the apparent inhibition constant for the inhibitor;
Thus the inhibition constant for the closed-channel conformation or state was determined from A/A(I) vs. inhibitor concentration by Equations 7a and 7b. Likewise, at a saturating ligand concentration (i.e., L>>K1), the majority of the receptors were in the open-channel state. Thus the inhibition constant for the open-channel state was determined.
The original cDNAs in pBlueScript encoding rat GluA1, 2 and 3 AMPA receptors and GluK2 kainate receptor were kindly provided by Steve Heinemann. The GluA4 DNA plasmid was kindly provided by Peter Seeburg. The GluK1 plasmid was kindly provided by Geoffrey Swanson. The cDNAs of all three NMDA receptor subunits were gifts from John Woodward. All DNA plasmids were propagated using Escherichia coli host (DH5α) and purified using QIAGEN DNA purification kits.
All of the receptors were transiently expressed in HEK-2935 cell. HEK-293S cells were maintained in Dulbecco's modified Eagle's medium (DMEM) supplemented with 10% fetal bovine serum and 1% penicillin in a 37° C., 5% CO2, humidified incubator. Receptors were transiently transfected by using calcium phosphate or lipofectamine 2000 (Invitrogen). The DNA plasmids encoding green fluorescent protein (GFP) and T-antigen (TAg) were cotransfected in HEK-293S cells. GFP was used as a transfection marker for cell recording, and TAg was cotransfected to potentiate the receptor expression at the single-cell level (51). Transfected cells were allowed to grow for 48 hour before they were used for recording.
The procedure for whole-cell current recording to assay the inhibitory property of an RNA aptamer is known to those of skill in the art and has been previously described (47). […] The extracellular buffer composition is described above (see “Receptor Preparation”).

GluA2Qflip receptor = GluA2Qflip receptor (Rattus norvegicus, UniProt P19491); assay: Homologous competition binding assay (cold vs hot aptamer); conditions: for binding to the receptor in the presence of NBQX: competitive inhibitor, data not shown; for Kd: triplicate data sets
Sequence of GluA2Qflip receptor (P19491 22-883 isoform P19491-2 limits assumed): as above
Source text: (§1) In fact, in a homologous competition binding experiment (42) in which the non-radiolabeled aptamer (or cold aptamer) was used to compete against the same, but radiolabeled, aptamer (or hot aptamer), AF44 bound to not only the closed-channel conformation (i.e., the unliganded, closed-channel receptor form) but also the open-channel conformation (FIG. 10). […] The binding results were consistent with noncompetitive sites, because these sites were supposed to be accessible through both the closed- and the open-channel conformations. […] These sites were noncompetitive type because binding to the receptor by either AF44 or AF42 or the full length AF1422 was unaffected in the presence of NBQX, a classic competitive inhibitor.
as §1, with “inhibitor (data not shown).” for “inhibitor.”

[1] = open-channel GluA2Qflip, read-out: Kd, open-channel conformation
[2] = unliganded, closed-channel GluA2Qflip, read-out: Kd, closed-channel conformation

Sequence of GluA1flip (P19490 19-907 isoform P19490-2 limits assumed): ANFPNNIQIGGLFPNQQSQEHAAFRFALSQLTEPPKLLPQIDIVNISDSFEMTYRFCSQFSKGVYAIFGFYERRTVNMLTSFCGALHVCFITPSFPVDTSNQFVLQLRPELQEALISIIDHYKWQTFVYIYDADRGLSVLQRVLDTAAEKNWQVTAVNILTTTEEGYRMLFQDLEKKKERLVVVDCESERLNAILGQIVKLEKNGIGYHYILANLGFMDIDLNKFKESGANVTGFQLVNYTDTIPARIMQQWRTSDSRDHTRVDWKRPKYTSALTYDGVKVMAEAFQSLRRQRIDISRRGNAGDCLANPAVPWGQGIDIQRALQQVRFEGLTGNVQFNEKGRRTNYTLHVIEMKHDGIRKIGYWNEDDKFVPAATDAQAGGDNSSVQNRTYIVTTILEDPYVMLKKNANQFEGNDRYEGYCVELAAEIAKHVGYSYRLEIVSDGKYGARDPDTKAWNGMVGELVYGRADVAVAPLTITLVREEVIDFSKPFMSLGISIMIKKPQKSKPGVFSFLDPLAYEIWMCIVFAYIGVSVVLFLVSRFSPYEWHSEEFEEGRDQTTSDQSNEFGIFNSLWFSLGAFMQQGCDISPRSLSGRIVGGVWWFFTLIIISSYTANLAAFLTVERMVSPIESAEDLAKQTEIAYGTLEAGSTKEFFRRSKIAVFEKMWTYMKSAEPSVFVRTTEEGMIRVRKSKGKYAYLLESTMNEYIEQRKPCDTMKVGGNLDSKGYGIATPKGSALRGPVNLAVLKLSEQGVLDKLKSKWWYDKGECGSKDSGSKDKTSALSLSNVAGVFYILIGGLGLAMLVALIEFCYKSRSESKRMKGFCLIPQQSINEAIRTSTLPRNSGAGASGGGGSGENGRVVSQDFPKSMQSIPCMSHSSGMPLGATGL

For `CNC(=O)N1N=C(c2ccc(N)cc2)c2cc3c(cc2CC1C)OCO3` (stereo not shown) [BDZ-f, 1-(4-aminophenyl)-3-methylcarbamoyl-4-methyl-7,8-methylenedioxy-3,4-dihydro-5H-2,3-benzodiazepine, reference compound], the “effect on GluA1, A/A(I)” value (GluA1flip) was “inhibited”, the “inhibition of the non-desensitizing phase of the receptor response” value (GluA2Qflip AMPA receptor; 0.1 mM glutamate, AF44/AF42 up to 12.5 μM, BDZ-f up to 20 μM) was “uninhibited” and the “inhibition of GluA2Qflip in the subunit selectivity test, A/A(I)” value (GluA2Qflip AMPA receptor; FIG. 8A/8B, two glutamate concentrations) was “inhibited”. It also gave a Ki (GluA2Qflip AMPA receptor; KI for the closed-channel conformation, 100 μM glutamate, -60 mV, 22 °C) of 3800 ± 400 nM and a Ki (GluA2Qflip AMPA receptor; KI for the open-channel conformation, 3 mM glutamate) of 5400 ± 800 nM.

“AF44: 44-nucleotide RNA truncated from AF1422, G22 replaced with A22, SEQ ID NO: 4 (GGGAGAAUUCAACUGCCACGGAUAAUAGCCAAUACUACAACCGU; listed as RNA, chemistry not given here)” was tested, and the “binding to the receptor in the presence of NBQX” value (“binding to the receptor” below) (GluA2Qflip receptor) was “unaffected”, the Kd (GluA2Qflip receptor; [1]) was 48 ± 13 nM and the Kd (GluA2Qflip receptor; [2]) was 44 ± 18 nM. The “inhibition by A/A(I), ratio of whole-cell current amplitude in absence and presence of aptamer” value (shortened to “inhibition by A/A(I), ratio”) (GluA2Qflip AMPA receptor; 100 μM glutamate) was “did not render any inhibition”.

In the case of “AF42: 42-nucleotide RNA truncated from AF1422, SEQ ID NO: 5 (GGGAACGGUGCCAGUCCGAAACGGAUCGUUAGAGCAUCAGUA; listed as RNA, chemistry not given here)”, the “binding to the receptor” value (GluA2Qflip receptor) is reported as “unaffected”, the Kd (GluA2Qflip receptor; [1]) is reported as 44 ± 11 nM and the Kd (GluA2Qflip receptor; [2]) is reported as 57 ± 21 nM. The “inhibition by A/A(I), ratio” value (GluA2Qflip AMPA receptor; 100 μM glutamate) was “did not render any inhibition”.

In the case of “AF38: AF42 with terminal loop removed, SEQ ID NO: 6 (GGGUCGUUAGAGCAUCAGUACACCAACGGUGCGAGCCC; listed as RNA, chemistry not fully specified)”, the “inhibition by A/A(I), ratio” value (GluA2Qflip AMPA receptor; 100 μM glutamate) is reported as “total loss of function”.

For “AF20: truncated AF1422 containing only the 5' stem loop, SEQ ID NO: 7 (GGGAGAAUUCAACUGCCAUC; listed as RNA, chemistry not fully specified)”, the “inhibition by A/A(I), ratio” value (GluA2Qflip AMPA receptor; 100 μM glutamate) was “not sufficient to act either alone as an inhibitor or together with AF42 as an inhibitory pair”.

B1: AF1422: RNA aptamer, SEQ ID NO: 1, most enriched SELEX sequence binding closed-channel GluA2Qflip (nucleic acid)
chain: GGGAGAAUUCAACUGCCAUCUAGGCAGAAGUGUAAUAGCCAACGGUGCCAGUCCGAAACGGAUCGUUAGAGCAUCAGUACUACAAGCUUCUGGACUCGGU
modifications: listed as RNA, chemistry not given here
B1 was tested, and the “binding to the receptor” value (GluA2Qflip receptor) was “unaffected”, the “inhibition by A/A(I), ratio” value (GluA2Qflip AMPA receptor; 100 μM glutamate) was “one of the most potent inhibitors” and the “inhibition of closed-channel versus open-channel conformation” value (GluA2Qflip AMPA receptor; low (100 μM) vs high (3 mM) glutamate) was “inhibited the closed-channel, preferentially over the open-channel”.

B2: AF78: truncated sequence of AF1422, SEQ ID NO: 3, lacking the 5' stem-loop (nucleic acid)
chain: GGGAGCCAGAAGUGUAAUAGCCAACGGUGCCAGUCCGAAACGGAUCGUUAGAGCAUCAGUACUACAAGCUUCUGGACU
modifications: listed as RNA, chemistry not fully specified
For B2, the “inhibition by A/A(I), ratio” value (GluA2Qflip AMPA receptor; 100 μM glutamate) was “non-inhibitory”.
